Reference: PubChem BioAssay AID330 (DTP/NCI, 2004)
Values joined by “and” are separate entries in the source; they are usually repeats but may differ in a detail not shown here. Equal values may be shown once. Toxic doses and inconclusive results are not listed.

System: P388 leukemia ip, CD2F1 mice, survival T/C
Experiment: NCI In Vivo Anticancer Drug Screen. Data for tumor model P388 Leukemia (intraperitoneal) in CD2F1 (CDF1) mice
Details: endpoint: median survival time, higher = longer survival
Method in brief: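 Mice carrying the transplanted tumor received test compound or vehicle. Survival was recorded in each group, and the value is the treated-group measurement divided by that of the vehicle-treated control group.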

[1] = dose: 100.0 mg/kg/injection, schedule: Q01DX009 (ip), vehicle: saline
[2] = dose: 200.0 mg/kg/injection, schedule: Q01DX009 (ip), vehicle: saline
[3] = dose: 100.0 mg/kg/injection, schedule: Q01DX009 (ip), vehicle: saline with Tween-80
[4] = dose: 200.0 mg/kg/injection, schedule: Q01DX009 (ip), vehicle: saline with Tween-80
[5] = dose: 50.0 mg/kg/injection, schedule: Q01DX005 (ip), vehicle: Klucel (hydroxypropylcellulose) (HPC)
[6] = dose: 100.0 mg/kg/injection, schedule: Q01DX005 (ip), vehicle: Klucel (hydroxypropylcellulose) (HPC)
[7] = dose: 25.0 mg/kg/injection, schedule: Q01DX009 (ip), vehicle: saline
[8] = dose: 50.0 mg/kg/injection, schedule: Q01DX009 (ip), vehicle: saline
[9] = dose: 50.0 mg/kg/injection, schedule: Q01DX009 (ip), vehicle: saline with Tween-80
[10] = dose: 100.0 mg/kg/injection, schedule: Q04DX002 (ip), vehicle: Klucel (hydroxypropylcellulose) (HPC)
[11] = dose: 200.0 mg/kg/injection, schedule: Q04DX002 (ip), vehicle: Klucel (hydroxypropylcellulose) (HPC)

In the case of `O=[N+]([O-])c1ccc(/C=N\Nc2ccc([N+](=O)[O-])cn2)cc1`, the T/C [1] was 100 % of control, the T/C (dose: 100.0 mg/kg/injection, schedule: Q04DX003 (ip), vehicle: saline with Tween-80) was 90 % of control and the T/C [2] was 115 % of control. The T/C (dose: 200.0 mg/kg/injection, schedule: Q04DX003 (ip), vehicle: saline with Tween-80) was 104 % of control, the T/C (dose: 400.0 mg/kg/injection, schedule: Q01DX009 (ip), vehicle: saline) was 105 % of control and the T/C (dose: 400.0 mg/kg/injection, schedule: Q04DX003 (ip), vehicle: saline with Tween-80) was 109 % of control.
`CN(C)C(C)(C)P(=O)(O)O` was tested, and the T/C [3] was 100 % of control, the T/C [4] was 100 % of control and the T/C (dose: 400.0 mg/kg/injection, schedule: Q01DX009 (ip), vehicle: saline with Tween-80) was 100 % of control.
For `CC(C)(C)N(C(=O)OCC1c2ccccc2-c2ccccc21)C(CO)C(=O)O` (centres undefined), the T/C [5] was 100 % of control and the T/C [6] was 107 % of control.
In the case of `O=C(O)O`, the T/C [7] was 102 % of control, the T/C [8] was 94 % of control and 93 % of control and the T/C [3] was 100 % of control. For the same compound, the T/C [1] was 99 % of control and 95 % of control, the T/C [4] was 95 % of control and the T/C [2] was 98 % of control and 102 % of control. For the same compound, the T/C (dose: 200.0 mg/kg/injection, schedule: Q04DX003 (ip), vehicle: saline sonified) was 100 % of control, the T/C (dose: 0.25 % in 0.5 ml injection vol, schedule: Q01DX009 (ip), vehicle: water) was 98 % of control and the T/C (dose: 400.0 mg/kg/injection, schedule: Q04DX003 (ip), vehicle: saline sonified) was 100 % of control. For the same compound, the T/C (dose: 0.5 % in 0.5 ml injection vol, schedule: Q01DX009 (ip), vehicle: water) was 100 % of control, the T/C (dose: 1.0 % in 0.5 ml injection vol, schedule: Q01DX009 (ip), vehicle: water) was 102 % of control and the T/C (dose: 4.0 % in 0.5 ml injection vol, schedule: Q01DX009 (ip), vehicle: water) was 100 % of control and 102 % of control. The T/C (dose: 8.0 % in 0.5 ml injection vol, schedule: Q01DX009 (ip), vehicle: water) was 99 % of control and 95 % of control.
`COc1ccc(/C=N/NC(=O)C(=O)N/N=C/c2ccc(OC)c(S(=O)(=O)O)c2)cc1S(=O)(=O)O` was tested, and the T/C [8] was 102 % of control, the T/C [1] was 104 % of control and the T/C [2] was 109 % of control.
For `Nc1nc(F)nc2c1ncn2C1OC(CO)C(O)C1O` (centres undefined), the T/C (dose: 53.0 mg/kg/injection, schedule: Q03HX024 (ip), vehicle: saline with Tween-80) was 253 % of control, the T/C (dose: 80.0 mg/kg/injection, schedule: Q03HX024 (ip), vehicle: saline with Tween-80) was 283 % of control and the T/C (dose: 120.0 mg/kg/injection, schedule: Q03HX024 (ip), vehicle: saline with Tween-80) was 123 % of control.
`O=c1oc2c(c3c1CCCC3)c(=O)[nH]c1ccccc12` was tested, and the T/C [5] was 111 % of control, the T/C [6] was 116 % of control and the T/C (dose: 200.0 mg/kg/injection, schedule: Q01DX005 (ip), vehicle: Klucel (hydroxypropylcellulose) (HPC)) was 115 % of control.
`CCN(CC)CCCC(C)Nc1cc(C)c2nc(C)cc(C)c2c1C` (centres undefined) was tested, and the T/C (dose: 12.5 mg/kg/injection, schedule: Q01DX009 (ip), vehicle: saline) was 98 % of control, the T/C [7] was 97 % of control and the T/C [9] was 100 % of control. The T/C [8] was 90 % of control.
`CC12CCC3C(CCC4N(CCCl)CCCC34C)C1CCC2O` (centres undefined) was tested, and the T/C (dose: 25.0 mg/kg/injection, schedule: Q01DX001 (ip), vehicle: saline) was 101 % of control, the T/C (dose: 50.0 mg/kg/injection, schedule: Q01DX001 (ip), vehicle: saline) was 109 % of control and the T/C (dose: 100.0 mg/kg/injection, schedule: Q01DX001 (ip), vehicle: saline) was 111 % of control.
`CCOC(=O)C1(Br)CCCCC1` was tested, and the T/C [9] was 109 % of control, the T/C [3] was 111 % of control and the T/C [4] was 103 % of control.
`CN(c1ccccc1)c1c2c(oc(=O)c1Cl)-c1ccccc1SC2` was tested, and the T/C (dose: 6.25 mg/kg/injection, schedule: Q01DX009 (ip), vehicle: saline with Tween-80) was 91 % of control, the T/C (dose: 25.0 mg/kg/injection, schedule: Q01DX009 (ip), vehicle: saline with Tween-80) was 93 % of control and the T/C [4] was 93 % of control.
With `COc1ccc2c(n1)Sc1nc3ccccc3nc1N2` the T/C (dose: 60.0 mg/kg/injection, schedule: Q01DX005 (ip), vehicle: saline with Tween-80) was 100 % of control, the T/C (dose: 120.0 mg/kg/injection, schedule: Q01DX005 (ip), vehicle: saline with Tween-80) was 100 % of control and the T/C (dose: 240.0 mg/kg/injection, schedule: Q01DX005 (ip), vehicle: saline with Tween-80) was 101 % of control.
With `Cc1ccc(N=Nc2c(C)nn(C(=S)S)c2C)cc1` the T/C [10] was 100 % of control and the T/C [11] was 105 % of control.
With `Clc1nccc2c1ncn2[Te]n1cnc2c(Cl)nccc21` the T/C (dose: 12.5 mg/kg/injection, schedule: Q04DX002 (ip), vehicle: saline) was 105 % of control and the T/C (dose: 25.0 mg/kg/injection, schedule: Q04DX002 (ip), vehicle: saline) was 103 % of control.
With `CCOC(=O)C(NC(C)=O)(C(=O)OCC)C1CCCCC1=O` (centres undefined) the T/C (dose: 60.0 mg/kg/injection, schedule: Q01DX005 (ip), vehicle: saline) was 108 % of control, the T/C (dose: 120.0 mg/kg/injection, schedule: Q01DX005 (ip), vehicle: saline) was 96 % of control and the T/C (dose: 240.0 mg/kg/injection, schedule: Q01DX005 (ip), vehicle: saline) was 99 % of control.
For `CN1CCN(CC2C3CCC(C3)C2O)CC1` (centres undefined), the T/C (dose: 25.0 mg/kg/injection, schedule: Q01DX005 (ip), vehicle: saline) was 100 % of control, the T/C (dose: 50.0 mg/kg/injection, schedule: Q01DX005 (ip), vehicle: saline) was 97 % of control and the T/C (dose: 100.0 mg/kg/injection, schedule: Q01DX005 (ip), vehicle: saline) was 96 % of control. For the same compound, the T/C (dose: 200.0 mg/kg/injection, schedule: Q01DX005 (ip), vehicle: saline) was 99 % of control.
For `Cc1ccc(C(=Nc2ccccc2)c2ccccc2C)cc1`, the T/C (dose: 50.0 mg/kg/injection, schedule: Q04DX002 (ip), vehicle: saline with Tween-80) was 91 % of control and 95 % of control, the T/C (dose: 100.0 mg/kg/injection, schedule: Q04DX002 (ip), vehicle: saline with Tween-80) was 104 % of control and 86 % of control and the T/C (dose: 200.0 mg/kg/injection, schedule: Q04DX002 (ip), vehicle: saline with Tween-80) was 87 % of control and 93 % of control. The T/C (dose: 400.0 mg/kg/injection, schedule: Q04DX002 (ip), vehicle: saline with Tween-80) was 86 % of control and 95 % of control.
`CC(=O)OC1C=CC2OC2(COC(=O)c2ccccc2)C1OC(C)=O` (centres undefined) was tested, and the T/C (dose: 2.5 mg/kg/injection, schedule: Q01DX009 (ip), vehicle: Klucel (hydroxypropylcellulose) (HPC)) was 87 % of control, the T/C (dose: 5.0 mg/kg/injection, schedule: Q01DX009 (ip), vehicle: Klucel (hydroxypropylcellulose) (HPC)) was 99 % of control and the T/C (dose: 10.0 mg/kg/injection, schedule: Q01DX009 (ip), vehicle: Klucel (hydroxypropylcellulose) (HPC)) was 92 % of control. For the same compound, the T/C (dose: 28.75 mg/kg/injection, schedule: Q01DX005 (ip), vehicle: saline + Tween-80 + alcohol) was 100 % of control, the T/C (dose: 57.5 mg/kg/injection, schedule: Q01DX005 (ip), vehicle: saline + Tween-80 + alcohol) was 102 % of control and the T/C (dose: 115.0 mg/kg/injection, schedule: Q01DX005 (ip), vehicle: saline + Tween-80 + alcohol) was 100 % of control. For the same compound, the T/C (dose: 230.0 mg/kg/injection, schedule: Q01DX005 (ip), vehicle: saline + Tween-80 + alcohol) was 100 % of control.
`CN(C)CCSc1n[nH]c(=O)[nH]c1=O` was tested, and the T/C (dose: 25.0 mg/kg/injection, schedule: Q01DX005 (ip), vehicle: distilled water + alcohol) was 101 % of control, the T/C (dose: 50.0 mg/kg/injection, schedule: Q01DX005 (ip), vehicle: distilled water + alcohol) was 95 % of control and the T/C (dose: 100.0 mg/kg/injection, schedule: Q01DX005 (ip), vehicle: distilled water + alcohol) was 100 % of control. For the same compound, the T/C (dose: 200.0 mg/kg/injection, schedule: Q01DX005 (ip), vehicle: distilled water + alcohol) was 96 % of control.
With `CCc1[nH]c2ccccc2c1C(=O)c1ccncc1` the T/C (dose: 100.0 mg/kg/injection, schedule: Q04DX003 (ip), vehicle: suspension in saline) was 103 % of control, the T/C (dose: 200.0 mg/kg/injection, schedule: Q04DX003 (ip), vehicle: suspension in saline) was 101 % of control and the T/C (dose: 400.0 mg/kg/injection, schedule: Q04DX003 (ip), vehicle: suspension in saline) was 108 % of control.
In the case of `O=C1c2cccc3cccc(c23)C(=O)N1c1nccs1`, the T/C (dose: 50.0 mg/kg/injection, schedule: Q01DX005 (ip), vehicle: saline with Tween-80) was 100 % of control, the T/C (dose: 100.0 mg/kg/injection, schedule: Q01DX005 (ip), vehicle: saline with Tween-80) was 94 % of control and the T/C (dose: 200.0 mg/kg/injection, schedule: Q01DX005 (ip), vehicle: saline with Tween-80) was 90 % of control.
In the case of `c1cnc2c(c1)Nc1cnncc1S2`, the T/C [10] was 98 % of control, the T/C [11] was 100 % of control and the T/C (dose: 400.0 mg/kg/injection, schedule: Q04DX002 (ip), vehicle: Klucel (hydroxypropylcellulose) (HPC)) was 92 % of control.
